From the supplement of paper PMC10307832

Key:
Assay in all cases: relative viability (nuclei count vs DMSO), 5 days (fraction); higher = more cells survive
[1] = tested on: CAL-12T
Summary of the method: (§1)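 Lung cancer cell lines in 1536-well plates were dosed by pin tool the day after seeding, either with one drug alone or with a fixed anchor-drug dose plus five library-drug doses (not always all listed) in √10 steps. After 5 days, cells were fixed and their nuclei stained in one step (final 0.05% Triton X-100, 1% formaldehyde, 1 ug/ml Hoechst), then counted on 4× images. Relative viability is the nuclei count in treated wells divided by that in vehicle wells. Values are medians of duplicate plates.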

[2] = tested on: LK-2
Summary of the method: as §1

[3] = tested on: NCI-H1793
Summary of the method: as §1

[4] = tested on: NCI-H1944
Summary of the method: as §1

[5] = tested on: EKVX
Summary of the method: as §1

[6] = tested on: NCI-H2228
Summary of the method: as §1

[7] = tested on: NCI-H661
Summary of the method: as §1

[8] = tested on: SK-MES-1
Summary of the method: as §1

[9] = tested on: NCI-H1915
Summary of the method: as §1

[10] = tested on: LC-2-ad
Summary of the method: as §1

[11] = tested on: SK-LU-1
Summary of the method: as §1

[12] = tested on: COR-L 105
Summary of the method: as §1

[13] = tested on: NCI-H1395
Summary of the method: as §1

[14] = tested on: EMC-BAC-2
Summary of the method: as §1

[15] = tested on: LXF-289
Summary of the method: as §1

[16] = tested on: H3255
Summary of the method: as §1

[17] = tested on: NCI-H1437
Summary of the method: as §1

[18] = tested on: NCI-H1651
Summary of the method: as §1

[19] = tested on: PC-3 [JPC-3]
Summary of the method: as §1

[20] = tested on: NCI-H2085
Summary of the method: as §1

[21] = tested on: NCI-H2087
Summary of the method: as §1

[22] = tested on: NCI-H2347
Summary of the method: as §1

[23] = tested on: NCI-H1755
Summary of the method: as §1

Work on `O=c1[nH]c2ccccc2n1C1CCN(CCCC(c2ccc(F)cc2)c2ccc(F)cc2)CC1` [Pimozide] + N=C(N)NC(=N)NCCc1ccccc1 [Phenformin] (partner 250 µM) yielded a relative viability ([1]; first compound 0.08 µM) of 0.581, a relative viability ([1]; first compound 0.253 µM) of 0.506 and a relative viability ([1]; first compound 0.8 µM) of 0.623. For the same molecule, the relative viability ([1]; first compound 2.53 µM) was 0.496, the relative viability ([1]; first compound 8 µM) was 0.575 and the relative viability ([2]; first compound 0.08 µM) was 0.501. For the same molecule, the relative viability ([2]; first compound 0.253 µM) was 0.367, the relative viability ([2]; first compound 2.53 µM) was 0.237 and the relative viability ([2]; first compound 8 µM) was 0.345. The relative viability ([3]; first compound 0.253 µM) was 0.29, the relative viability ([3]; first compound 0.8 µM) was 0.226 and the relative viability ([3]; first compound 2.53 µM) was 0.237. The relative viability ([3]; first compound 8 µM) was 0.356, the relative viability ([4]; first compound 0.08 µM) was 0.191 and the relative viability ([4]; first compound 0.253 µM) was 0.197. It also gave a relative viability ([4]; first compound 0.8 µM) of 0.187, a relative viability ([4]; first compound 2.53 µM) of 0.184 and a relative viability ([4]; first compound 8 µM) of 0.198. It also gave a relative viability ([5]; first compound 0.08 µM) of 0.192, a relative viability ([5]; first compound 0.253 µM) of 0.235 and a relative viability ([5]; first compound 0.8 µM) of 0.201. It also gave a relative viability ([5]; first compound 2.53 µM) of 0.235, a relative viability ([5]; first compound 8 µM) of 0.226 and a relative viability ([6]; first compound 0.08 µM) of 0.371. It also gave a relative viability ([6]; first compound 0.253 µM) of 0.293, a relative viability ([6]; first compound 0.8 µM) of 0.338 and a relative viability ([6]; first compound 2.53 µM) of 0.225. For the same molecule, the relative viability ([6]; first compound 8 µM) was 0.192, the relative viability ([7]; first compound 0.08 µM) was 0.256 and the relative viability ([7]; first compound 0.253 µM) was 0.287. For the same molecule, the relative viability ([7]; first compound 0.8 µM) was 0.257, the relative viability ([7]; first compound 2.53 µM) was 0.263 and the relative viability ([7]; first compound 8 µM) was 0.257. It also gave a relative viability ([8]; first compound 0.08 µM) of 0.628, a relative viability ([8]; first compound 0.253 µM) of 0.619 and a relative viability ([8]; first compound 0.8 µM) of 0.664. The relative viability ([8]; first compound 2.53 µM) was 0.587, the relative viability ([8]; first compound 8 µM) was 0.603 and the relative viability ([9]; first compound 0.08 µM) was 0.363. For the same molecule, the relative viability ([9]; first compound 0.253 µM) was 0.349, the relative viability ([9]; first compound 0.8 µM) was 0.349 and the relative viability ([9]; first compound 2.53 µM) was 0.366. The relative viability ([9]; first compound 8 µM) was 0.367, the relative viability ([10]; first compound 0.08 µM) was 0.573 and the relative viability ([10]; first compound 0.253 µM) was 0.558. For the same molecule, the relative viability ([10]; first compound 0.8 µM) was 0.571, the relative viability ([10]; first compound 2.53 µM) was 0.623 and the relative viability ([10]; first compound 8 µM) was 0.605. The relative viability ([11]; first compound 0.08 µM) was 0.559, the relative viability ([11]; first compound 0.253 µM) was 0.533 and the relative viability ([11]; first compound 0.8 µM) was 0.558. For the same molecule, the relative viability ([11]; first compound 2.53 µM) was 0.532, the relative viability ([11]; first compound 8 µM) was 0.415 and the relative viability ([12]; first compound 0.253 µM) was 0.519. It also gave a relative viability ([12]; first compound 0.8 µM) of 0.512, a relative viability ([12]; first compound 2.53 µM) of 0.471 and a relative viability ([12]; first compound 8 µM) of 0.473. For the same molecule, the relative viability ([13]; first compound 0.08 µM) was 0.411, the relative viability ([13]; first compound 0.253 µM) was 0.405 and the relative viability ([13]; first compound 0.8 µM) was 0.411. The relative viability ([13]; first compound 2.53 µM) was 0.42, the relative viability ([13]; first compound 8 µM) was 0.403 and the relative viability ([14]; first compound 0.08 µM) was 0.561. It also gave a relative viability ([14]; first compound 0.253 µM) of 0.515, a relative viability ([14]; first compound 0.8 µM) of 0.483 and a relative viability ([14]; first compound 2.53 µM) of 0.486. The relative viability ([14]; first compound 8 µM) was 0.519, the relative viability ([15]; first compound 0.08 µM) was 0.501 and the relative viability ([15]; first compound 0.253 µM) was 0.502. It also gave a relative viability ([15]; first compound 0.8 µM) of 0.475, a relative viability ([15]; first compound 2.53 µM) of 0.505 and a relative viability ([15]; first compound 8 µM) of 0.487. The relative viability ([16]; first compound 0.253 µM) was 0.37, the relative viability ([16]; first compound 0.8 µM) was 0.387 and the relative viability ([16]; first compound 2.53 µM) was 0.372. For the same molecule, the relative viability ([16]; first compound 8 µM) was 0.4, the relative viability ([17]; first compound 0.08 µM) was 0.395 and the relative viability ([17]; first compound 0.253 µM) was 0.318. For the same molecule, the relative viability ([17]; first compound 0.8 µM) was 0.327, the relative viability ([17]; first compound 2.53 µM) was 0.275 and the relative viability ([17]; first compound 8 µM) was 0.25. It also gave a relative viability ([18]; first compound 0.08 µM) of 0.346, a relative viability ([18]; first compound 0.253 µM) of 0.305 and a relative viability ([18]; first compound 0.8 µM) of 0.316. The relative viability ([18]; first compound 2.53 µM) was 0.338, the relative viability ([18]; first compound 8 µM) was 0.283 and the relative viability ([19]; first compound 0.08 µM) was 0.357. It also gave a relative viability ([19]; first compound 0.253 µM) of 0.469, a relative viability ([19]; first compound 0.8 µM) of 0.451 and a relative viability ([19]; first compound 2.53 µM) of 0.486. The relative viability ([19]; first compound 8 µM) was 0.403, the relative viability ([20]; first compound 0.08 µM) was 0.681 and the relative viability ([20]; first compound 0.253 µM) was 0.732. For the same molecule, the relative viability ([20]; first compound 0.8 µM) was 0.58, the relative viability ([20]; first compound 2.53 µM) was 0.705 and the relative viability ([20]; first compound 8 µM) was 0.637. It also gave a relative viability ([21]; first compound 0.08 µM) of 0.5, a relative viability ([21]; first compound 0.253 µM) of 0.47 and a relative viability ([21]; first compound 2.53 µM) of 0.464. It also gave a relative viability ([21]; first compound 8 µM) of 0.393, a relative viability ([22]; first compound 0.253 µM) of 0.474 and a relative viability ([22]; first compound 0.8 µM) of 0.374. The relative viability ([22]; first compound 2.53 µM) was 0.451, the relative viability ([22]; first compound 8 µM) was 0.269 and the relative viability ([23]; first compound 0.08 µM) was 0.585. It also gave a relative viability ([23]; first compound 0.253 µM) of 0.587, a relative viability ([23]; first compound 0.8 µM) of 0.574 and a relative viability ([23]; first compound 2.53 µM) of 0.64. For the same molecule, the relative viability ([23]; first compound 8 µM) was 0.538.
